molecular target: NamPT (Homo sapiens (Human), UniProt P43490); assay: Measurement of NamPT inhibitory ability IC50 (NamPT colorimetric assay kit, Abcam ab221819); type: biochemical; details: NamPT recombinant protein, WST-1 absorbance at 450 nm; class key in μM
Protocol: To test the effect of the compound prepared in each Example on the substrate decomposition rate (Vmax/min) mediated by NamPT enzyme, IC50 was calculated. In this experiment, the NamPT colorimetric assay kit (ab221819) produced by Abcam was used, and Graph prism software was used for IC50 calculation. PRPP, ATP, NMNAT1, NamPT recombinant proteins, and various concentrations of the compound of each Example (half-log step dilution from 100 μM) were added to nicotinamide to synthesize nicotinamide adenine dinucleotide (NAD) from the nicotinamide, and a total of 60 μL of the reaction solution was reacted at room temperature for 1 hour. WST-1 formazan converted by NAD generated by adding WST-1 was measured. The result of the reaction was obtained by the following formula by measuring absorbance using EnVision2105 (PerkinElmer) at 450 nm for 60 minutes at 2-minute intervals.
In Mathematical Formula 1, T1 and T2 are arbitrary times, and A1 and A2 represent the absorbance measured at T1 and T2 at 450 nm, respectively.
The results of measuring the NamPT inhibition activity of the compound of each Example obtained through the above experiment are shown in Table 1 in the unit of IC50 (nM), and the result values are expressed as follows.

Sequence of NamPT (P43490 whole entry): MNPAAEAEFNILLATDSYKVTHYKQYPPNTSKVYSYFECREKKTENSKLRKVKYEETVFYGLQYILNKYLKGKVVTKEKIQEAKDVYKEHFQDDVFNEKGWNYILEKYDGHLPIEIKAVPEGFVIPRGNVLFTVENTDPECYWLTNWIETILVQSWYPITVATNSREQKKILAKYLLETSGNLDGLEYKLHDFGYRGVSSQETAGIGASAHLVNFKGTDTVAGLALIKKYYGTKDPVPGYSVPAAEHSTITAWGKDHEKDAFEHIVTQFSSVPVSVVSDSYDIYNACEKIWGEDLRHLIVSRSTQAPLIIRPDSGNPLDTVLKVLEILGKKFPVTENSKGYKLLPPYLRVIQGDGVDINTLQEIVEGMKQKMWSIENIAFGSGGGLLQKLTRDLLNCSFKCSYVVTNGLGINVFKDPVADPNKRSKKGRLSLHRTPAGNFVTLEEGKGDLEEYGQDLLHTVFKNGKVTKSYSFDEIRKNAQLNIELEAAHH

Row | SMILES | IC50 [µM]
1 | Cc1ccc2nc(-c3ccc(CNC(=O)c4cnc5nccn5c4)cc3)oc2c1 [Example 1, N-[[4-(6-methyl-1,3-benzoxazol-2-yl)phenyl]methyl]imidazo[1,2-a]pyrimidin-6-carboxamide] | 0.051 to 0.1
2 | O=C(O)c1ccc2nc(-c3ccc(CNC(=O)c4cnc5nccn5c4)cc3)oc2c1 [Example 5, 2-[4-[(imidazo[1,2-a]pyrimidin-6-carbonylamino)methyl]phenyl]-1,3-benzoxazol-6-carboxylic acid] | 0.11 to 1
3 | COc1ccc2oc(-c3ccc(CNC(=O)c4cnc5nccn5c4)cc3)nc2c1 [Example 7, N-[[4-(5-methoxy-1,3-benzoxazol-2-yl)phenyl]methyl]imidazo[1,2-a]pyrimidin-6-carboxamide] | < 0.05
4 | Cc1ccc2nc(-c3ccc(CNC(=O)c4cnc5nccn5c4)cc3)sc2c1 [Example 8, N-[[4-(6-methyl-1,3-benzothiazol-2-yl)phenyl]methyl]imidazo[1,2-a]pyrimidin-6-carboxamide] | < 0.05
5 | CCS(=O)(=O)c1ccc2nc(-c3ccc(CNC(=O)c4cnc5nccn5c4)cc3)oc2c1 [Example 14, N-[[4-(6-ethylsulfonyl-1,3-benzoxazol-2-yl)phenyl]methyl]imidazo[1,2-a]pyrimidin-6-carboxamide] | < 0.05
6 | CCC(=O)Nc1ccc2oc(-c3ccc(CNC(=O)c4cnc5nccn5c4)cc3)nc2c1 [Example 15, N-[[4-[5-(propanoylamino)-1,3-benzoxazol-2-yl]phenyl]methyl]imidazo[1,2-a]pyrimidin-6-carboxamide] | 0.11 to 1
7 | O=C(NCc1ccc(-c2nc3cc(Cl)ccc3o2)cc1)c1cnc2nccn2c1 [Example 16, N-[[4-(5-chloro-1,3-benzoxazol-2-yl)phenyl]methyl]imidazo[1,2-a]pyrimidin-6-carboxamide] | < 0.05
8 | O=C(NCc1ccc(-c2nc3cc(F)ccc3o2)cc1)c1cnc2nccn2c1 [Example 18, N-[[4-(5-fluoro-1,3-benzoxazol-2-yl)phenyl]methyl]imidazo[1,2-a]pyrimidin-6-carboxamide] | 0.11 to 1
9 | Cc1cccc2oc(-c3ccc(CNC(=O)c4cnc5nccn5c4)cc3)nc12 [Example 20, N-[[4-(4-methyl-1,3-benzoxazol-2-yl)phenyl]methyl]imidazo[1,2-a]pyrimidin-6-carboxamide] | 0.11 to 1
10 | Cc1cccc2nc(-c3ccc(CNC(=O)c4cnc5nccn5c4)cc3)oc12 [Example 21, N-[[4-(7-methyl-1,3-benzoxazol-2-yl)phenyl]methyl]imidazo[1,2-a]pyrimidin-6-carboxamide] | 0.11 to 1
11 | O=C(NCc1ccc(-c2nc3cc(O)ccc3o2)cc1)c1cnc2nccn2c1 [Example 23, N-[[4-(5-hydroxy-1,3-benzoxazol-2-yl)phenyl]methyl]imidazo[1,2-a]pyrimidin-6-carboxamide] | < 0.05
12 | Cc1ccc2nc(-c3ccc(CNC(=O)c4cnc5nccn5c4)cc3)oc2n1 [Example 24, N-[[4-(5-methyloxazolo[5,4-b]pyridin-2-yl)phenyl]methyl]imidazo[1,2-a]pyrimidin-6-carboxamide] | < 0.05
13 | O=C(NCc1ccc(-c2nc3cc(Oc4ccccn4)ccc3o2)cc1)c1cnc2nccn2c1 [Example 25, N-[[4-[5-(2-pyridyloxy)-1,3-benzoxazol-2-yl]phenyl]methyl]imidazo[1,2-a]pyrimidin-6-carboxamide] | < 0.05
14 | Nc1ccc2nc(-c3ccc(CNC(=O)c4cnc5nccn5c4)cc3)oc2c1 [Example 26, N-[[4-(6-amino-1,3-benzoxazol-2-yl)phenyl]methyl]imidazo[1,2-a]pyrimidin-6-carboxamide] | 0.051 to 0.1
15 | O=C(NCc1ccc(-c2nc3cc(-c4cccnc4)ccc3o2)cc1)c1cnc2nccn2c1 [Example 27, N-[[4-[5-(3-pyridyl)-1,3-benzoxazol-2-yl]phenyl]methyl]imidazo[1,2-a]pyrimidin-6-carboxamide] | 0.051 to 0.1
16 | Cc1ccc2nc(-c3ccc(CNC(=O)c4cnc5nccn5c4)nc3)oc2c1 [Example 28, N-[[5-(6-methyl-1,3-benzoxazol-2-yl)-2-pyridyl]methyl]imidazo[1,2-a]pyrimidin-6-carboxamide] | 0.11 to 1
17 | CCOC(=O)c1ccc2oc(-c3ccc(CNC(=O)c4cnc5nccn5c4)cc3)nc2c1 [Example 29, ethyl 2-[4-[(imidazo[1,2-a]pyrimidin-6-carbonylamino)methyl]phenyl]-1,3-benzoxazol-5-carboxylate] | < 0.05
18 | O=C(NCc1ccc(-c2nc3cc(CO)ccc3o2)cc1)c1cnc2nccn2c1 [Example 30, N-[[4-[5-(hydroxymethyl)-1,3-benzoxazol-2-yl]phenyl]methyl]imidazo[1,2-a]pyrimidin-6-carboxamide] | < 0.05

Row | SMILES | IC50 [µM]
19 | Cc1ccc2nc(-c3ccc(CNC(=O)c4cnc5nccn5c4)c(F)c3)oc2c1 [Example 35, N-[[2-fluoro-4-(6-methyl-1,3-benzoxazol-2-yl)phenyl]methyl]imidazo[1,2-a]pyrimidin-6-carboxamide] | < 0.05
20 | O=C(NCc1ccc(-c2nc3cnccc3o2)cc1)c1cnc2nccn2c1 [Example 36, N-[(4-oxazolo[4,5-c]pyridin-2-ylphenyl)methyl]imidazo[1,2-a]pyrimidin-6-carboxamide] | 0.11 to 1
21 | CCS(=O)(=O)c1ccc2oc(-c3ccc(CNC(=O)c4cnc5nccn5c4)cc3)nc2c1 [Example 37, N-[[4-(5-ethylsulfonyl-1,3-benzoxazol-2-yl)phenyl]methyl]imidazo[1,2-a]pyrimidin-6-carboxamide] | 0.11 to 1
22 | O=C(NCc1ccc(-c2nc3cc(F)c(F)cc3o2)cc1)c1cnc2nccn2c1 [Example 39, N-[[4-(5,6-difluoro-1,3-benzoxazol-2-yl)phenyl]methyl]imidazo[1,2-a]pyrimidin-6-carboxamide] | < 0.05
23 | O=C(NCc1ccc(-c2nc3c(F)cc(F)cc3o2)cc1)c1cnc2nccn2c1 [Example 40, N-[[4-(4,6-difluoro-1,3-benzoxazol-2-yl)phenyl]methyl]imidazo[1,2-a]pyrimidin-6-carboxamide] | < 0.05
24 | O=C(NCc1ccc(-c2nc3cc(C(F)(F)F)c(Cl)cc3o2)cc1)c1cnc2nccn2c1 [Example 41, N-[[4-[6-chloro-5-(trifluoromethyl)-1,3-benzoxazol-2-yl]phenyl]methyl]imidazo[1,2-a]pyrimidin-6-carboxamide] | < 0.05
25 | O=C(NCc1ccc(-c2nc3cc(Cl)c(C(F)(F)F)cc3o2)cc1)c1cnc2nccn2c1 [Example 42, N-[[4-[5-chloro-6-(trifluoromethyl)-1,3-benzoxazol-2-yl]phenyl]methyl]imidazo[1,2-a]pyrimidin-6-carboxamide] | < 0.05
26 | COc1cc2nc(-c3ccc(CNC(=O)c4cnc5nccn5c4)cc3)oc2cc1C [Example 43, N-[[4-(5-methoxy-6-methyl-1,3-benzoxazol-2-yl)phenyl]methyl]imidazo[1,2-a]pyrimidin-6-carboxamide] | < 0.05
27 | CCc1ccc2oc(-c3ccc(CNC(=O)c4cnc5nccn5c4)cc3)nc2c1 [Example 44, N-[[4-(5-ethyl-1,3-benzoxazol-2-yl)phenyl]methyl]imidazo[1,2-a]pyrimidin-6-carboxamide] | < 0.05
28 | CCc1ccc2nc(-c3ccc(CNC(=O)c4cnc5nccn5c4)cc3)oc2c1 [Example 45, N-[[4-(6-ethyl-1,3-benzoxazol-2-yl)phenyl]methyl]imidazo[1,2-a]pyrimidin-6-carboxamide] | < 0.05
29 | Nc1ccc2oc(-c3ccc(CNC(=O)c4cnc5nccn5c4)cc3)nc2c1 [Example 46, N-[[4-(5-amino-1,3-benzoxazol-2-yl)phenyl]methyl]imidazo[1,2-a]pyrimidin-6-carboxamide] | 0.051 to 0.1
30 | O=C(NCc1ccc(-c2nc3cc(Cl)ccc3s2)cc1)c1cnc2nccn2c1 [Example 49, N-[[4-(5-chloro-1,3-benzothiazol-2-yl)phenyl]methyl]imidazo[1,2-a]pyrimidin-6-carboxamide] | < 0.05
31 | O=C(NCc1ccc(-c2nc3ccc(Cl)cc3s2)cc1)c1cnc2nccn2c1 [Example 50, N-[[4-(6-chloro-1,3-benzothiazol-2-yl)phenyl]methyl]imidazo[1,2-a]pyrimidin-6-carboxamide] | 0.051 to 0.1
32 | COc1ccc2sc(-c3ccc(CNC(=O)c4cnc5nccn5c4)cc3)nc2c1 [Example 51, N-[[4-(5-methoxy-1,3-benzothiazol-2-yl)phenyl]methyl]imidazo[1,2-a]pyrimidin-6-carboxamide] | < 0.05
33 | COc1ccc2nc(-c3ccc(CNC(=O)c4cnc5nccn5c4)cc3)sc2c1 [Example 52, N-[[4-(6-methoxy-1,3-benzothiazol-2-yl)phenyl]methyl]imidazo[1,2-a]pyrimidin-6-carboxamide] | < 0.05
34 | O=C(NCc1ccc(-c2nc3cc(Oc4ccccc4)ccc3o2)cc1)c1cnc2nccn2c1 [Example 53, N-[[4-(5-phenoxy-1,3-benzoxazol-2-yl)phenyl]methyl]imidazo[1,2-a]pyrimidin-6-carboxamide] | < 0.05
35 | CCCOc1ccc2oc(-c3ccc(CNC(=O)c4cnc5nccn5c4)cc3)nc2c1 [Example 54, N-[[4-(5-propoxy-1,3-benzoxazol-2-yl)phenyl]methyl]imidazo[1,2-a]pyrimidin-6-carboxamide] | 0.051 to 0.1
36 | O=C(NCc1ccc(-c2nc3cc(OCc4ccccc4)ccc3o2)cc1)c1cnc2nccn2c1 [Example 55, N-[[4-(5-benzyloxy-1,3-benzoxazol-2-yl)phenyl]methyl]imidazo[1,2-a]pyrimidin-6-carboxamide] | > 1
